Read-outs that look alike come from different tables or passages of the source.
Assays:
[1] = molecular target: PSMA; conditions: PSMA affinity, cited from earlier work
[2] = test system: LNCaP tumour-bearing mice; assay: Ex vivo biodistribution in LNCaP tumour-bearing mice; design: species or system SCID mice; conditions: for tumour-to-blood ratio / tumour-to-muscle ratio / tumour-to-kidney ratio: mean ± SD, n = 4
Experimental: The eight-week-old male SCID mice (Charles River, Massachusetts, USA) were used to generate the mouse tumour model. The implantation of 10 million LNCaP cells (ATCC, Virginia, USA) per mouse in a 1:1 mixture of Matrigel matrix (Corning, New York, USA) was performed subcutaneously behind the right shoulder of the mouse. Tumours of adequate size, representing a volume of 100–300 mm³, were observed after five to six weeks.
Ex vivo biodistribution of PSMA inhibitors in tumor-bearing mice was conducted as follows. Concisely, 30 µL of acetate buffer was added to the each ⁶⁸Ga -labelled inhibitor, namely: ⁶⁸Ga-P15, ⁶⁸Ga-P16, ⁶⁸Ga-P19, and ⁶⁸Ga-PSMA-617 to achieve physiological pH. Mice were r.o. injected with 100 µL of labelled inhibitor (2 MBq, approximately 0.5 µg of the inhibitor). Animals were divided into two groups for biodistribution studies at 1 and 2 h after administration of the respective ^68Ga-labelled PSMA inhibitor. The animals were sacrificed and autopsied after euthanasia, and organs: spleen, pancreas, stomach, intestine, kidney, liver, heart, lung, muscle, bone, and tumour were collected in scintillation vials. The vials containing the samples were weighed and measured in a Wizard2 gamma counter (PerkinElmer, USA). The measured values were then adjusted for radionuclide decay and expressed as a percentage of administered dose per gram of organ (%ID/g). The NanoScan® hybrid Positron Emission Tomography/Computed Tomography (PET/CT) machine (Mediso, Budapest, Hungary) was used for in vivo imaging specifically whole-body helical PET/CT scans. Imaging settings were: single field of view (FOV) PET scans (98.5 mm) which took 10 min for each mouse and helical CT scans (50 kVp/980 µA, 720 projections) both took place one hour after the administration. Each mouse received an injection of approximately 10 MBq of tested radiopharmaceutical. To prevent the mice’s eyes from drying out during anaesthesia eye ointment (Ophthalmo-Azulen, Zentiva, CR) was applied. Image reconstruction was performed using Mediso Tera-Tomo 3D PET iterative reconstruction (Mediso Medical Imaging Systems, Budapest, Hungary). Both reconstruction and data evaluation were performed in Mediso InterView FUSION software (Mediso Medical Imaging Systems, Budapest, Hungary) (Mediso, Budapest, Hungary). Final images were normalised to injected activity and animal weight. All organs with radiopharmaceutical accumulation were roughly delineated on the images, while their SUVmax value was recorded. The SUV41% (Standardized Uptake Value 41%) was then calculated as 41% of each SUVmax value of given hotspot and the ROI was delineated based on this value (Boellaard et al. [2015]). All images were exported in maximum intensity projection (MIP) mode. The results from the ex vivo biodistribution study were subjected to statistical analysis, namely unpaired Student’s t-test (Microsoft Excel 365, USA).

[3] = Radiochemical stability in physiological pH water environment; assay type: physicochemical; conditions: pH 7, 37 °C; for Stability in Physiological pH (%): radiochemical purity, n = 1
Experimental: (§1) Quality control, i.e. radiochemical purity, of the ^68Ga-labelled PSMA inhibitors was evaluated by analytical high performance liquid chromatography (HPLC; Dionex UltiMate 3000, Thermo Scientific, Waltham, Massachusetts, USA) using the following equipment: ACE 3 C18 column; 150 × 3 mm, 3 μm (Advanced Chromatography Technologies Ltd, Aberdeen, UK), with gradient elution A: H2O/acetonitrile (ACN); B:0.1% trifluoroacetic acid (TFA)/H2O: 0–3 min, 0% ACN; 3–10 min, 0 − 50% ACN; 10–13 min, 50 − 80% ACN; 13–15 min, 80–0% ACN, for 15 min at a flow rate of 1 mL/min. Radiometric detection was performed using a GABI Star radiodetector (Raytest GmbH, Straubenhardt, Germany) and for chromatogram quantification Chromatography Data System (CDS) - Chromeleon software (Thermo Scientific, USA) was used. The actual sample injection was performed using a Hamilton microinjector (Hamilton, USA).
Radiochemical stability in a physiological pH water environment was determined as follows: 100 µL of acetate buffer (1.1 mol/L) was added to the labelled preparation and the pH was then checked with a pH indicator paper to be 7. The mixture was further incubated at 37 °C and after 30, 60 and 120 min, 10 µL aliquot was used for HPLC analysis of radiochemical purity.

[4] = Binding to human plasma proteins; assay type: in vitro ADME; conditions: human plasma, 37 °C, n = 2, read-out: Protein binding (%) (converted)
Experimental: (§2) Binding to human plasma proteins was determined following this procedure: 10 µL of the ⁶⁸Ga-P15 with radioactivity of 45 kBq/100 µL was mixed with 190 µL of human plasma. The sample was then incubated at 37 °C. After 0, 30, 60 and 120 min 25 µL of the sample was collected, applied to the appropriate column and centrifuged at 2000 g for 2 minutes. The radioactivity of the samples was then measured using a gamma counter 2480 Wizard^2 (PerkinElmer, Waltham, MA, USA), and then the binding to plasma proteins was calculated using the following formula % plasma protein binding = (Aelution/Atotal)×100. The same procedure was applied when determining binding to plasma proteins of ⁶⁸Ga-P16, ⁶⁸Ga-P19, and ⁶⁸Ga-PSMA-617.

[5] = test system: human plasma proteins; assay: Binding to human plasma proteins; assay type: in vitro ADME; conditions: for Protein binding (%): human plasma, 37 °C, n = 2
Experimental: as §2

[6] = Stability in human plasma/serum (radiochemical purity by HPLC); assay type: in vitro ADME; conditions: radiochemical purity, 37 °C, n = 1
Experimental: as §1
Plasma stability was determined as follows. To 100 µL of ⁶⁸Ga-P15 with radioactivity of 45 kBq/100 µL, 400 µL of human plasma was added and mixed. The mixture was incubated at 37 °C and 100 µL samples were taken at 30, 60 and 120 min. These samples were then mixed with 200 µL of acetonitrile and placed on a shaker for 1 min. The sample was then centrifuged at 15,000 rpm for 3 min. After centrifugation, the supernatant was collected for radiochemical purity analysis by HPLC. The same procedure was applied when determining plasma stability of ⁶⁸Ga-P16, ⁶⁸Ga-P19, and ⁶⁸Ga-PSMA-617.

[7] = test system: human plasma proteins; conditions: cited from earlier work
[8] = Stability in human plasma/serum (radiochemical purity by HPLC); assay type: in vitro ADME; conditions: 37 °C, incubation time 0 min, n = 1
[9] = test system: mouse serum proteins; design: method as in Umbricht et al. [2018]; conditions: ref Umbricht et al. [2018]; cited from earlier work

Compound: O=C(O)CCC(NC(=O)NC(CCC(=O)O)C(=O)O)C(=O)O (centres unmarked) [Glu-urea-Glu]
- Ki ([1]; ref Kozikowski et al. [2001]): 47 nM

Compound: NCCCCC(NC(=O)NC(CCC(=O)O)C(=O)O)C(=O)O (centres unmarked) [Glu-urea-Lys]
- Ki ([1]; ref Banerjee et al. [2008]): 15.2 nM

Compound: O=C(O)CC[C@H](NC(=O)N[C@@H](CCC(=O)N[C@H](Cc1ccc2ccccc2c1)C(=O)N[C@H]1CC[C@H](NC(=O)CN2CCN(CC(=O)O)CCN(CC(=O)O)CCN(CC(=O)O)CC2)CC1)C(=O)O)C(=O)O [P15, Glu-urea-Glu-2-Nal-D-Ala-NH-CHX-NH-DOTA]
- specific accumulation (tumour), fold lower than [68Ga]Ga-PSMA-617 ([2]; one-hour p.i.): 7 fold
- specific accumulation (tumour), fold lower than [68Ga]Ga-PSMA-617 ([2]; two-hours p.i.): more than 17.5 fold

Compound: O=C(O)CC[C@H](NC(=O)N[C@@H](CCCCNC(=O)[C@@H](NC(=O)c1ccc(CNC(=O)CN2CCN(CC(=O)O)CCN(CC(=O)O)CCN(CC(=O)O)CC2)cc1)C(c1ccccc1)c1ccccc1)C(=O)O)C(=O)O [P19, Glu-urea-Lys-3,3-diphenyl-L-Ala-AMBA-DOTA]
- Radiochemical purity in physiological pH environment ([3]; each time-point tested (30, 60, 120 min)): highest stability
- tumour-to-blood ratio ([2]; two-hours p.i.): 9.1 ± 1.7
- tumour-to-muscle ratio ([2]; two-hours p.i.): 47.8 ± 12.4

Compound: O=C(O)CC[C@H](NC(=O)N[C@@H](CCCCNC(=O)[C@H](Cc1ccc2ccccc2c1)NC(=O)[C@H]1CC[C@H](CNC(=O)CN2CCN(CC(=O)O)CCN(CC(=O)O)CCN(CC(=O)O)CC2)CC1)C(=O)O)C(=O)O [PSMA-617, Glu-urea-Lys-2-Nal-L-Ala-CHX-DOTA, reference compound]
- fraction unbound at 0 min, 2.25 kBq/100 µL ([4]; incubation time 0 min): 0.47
- fraction unbound at 120 min, 2.25 kBq/100 µL ([4]; incubation time 120 min): 0.46
- tumour-to-background ratio, fold higher than [68Ga]Ga-P19 ([2]; two hours after administration): ~1.5 fold
- Ki ([1]; ref Benešová et al. [2015]): 2.34 nM

Compound: O=C([O-])CN1CCN(CC(=O)[O-])CCN(CC(=O)NCC2CCC(C(=O)NC(Cc3ccc4ccccc4c3)C(=O)NCCCCC(NC(=O)NC(CCC(=O)O)C(=O)O)C(=O)O)CC2)CCN(CC(=O)[O-])CC1.[68Ga+3] (centres unmarked) [[^68Ga]Ga-PSMA-617, reference compound]
- Protein binding (%) ([5]; incubation time 0 min): 52.6%
- Protein binding (%) ([5]; incubation time 30 min): 52.9%
- Protein binding (%) ([5]; incubation time 60 min): 53.3%
- Protein binding (%) ([5]; incubation time 120 min): 54.3%
- Binding rate to human plasma proteins ([5]; overall statement, incubation up to 120 min): approximately 54%
- Stability in human serum (%) ([6]; incubation time 30 min): 97.8%
- Stability in human serum (%) ([6]; incubation time 60 min): 98.2%
- Stability in human serum (%) ([6]; incubation time 120 min): 98.7%
- Stability in Physiological pH (%) ([3]; incubation time 0 min): 98.4%
- Stability in Physiological pH (%) ([3]; incubation time 30 min): 98.5%
- Stability in Physiological pH (%) ([3]; incubation time 60 min): 98.9%
- Stability in Physiological pH (%) ([3]; incubation time 120 min): 98.5%
- tumour-to-blood ratio ([2]; one-hour p.i.): 5.5 ± 2.0
- tumour-to-kidney ratio ([2]; one-hour p.i.): 0.12 ± 0.03
- tumour-to-kidney ratio ([2]; two hours post injection): 1.26 ± 0.46
- tumour-to-blood ratio ([2]; two-hours p.i.): 13.6 ± 7.0
- tumour-to-muscle ratio ([2]; two-hours p.i.): 68.4 ± 66.1
- Binding to plasma proteins ([7]; human, ref Benešová et al. [2018]): 59%
- Binding to human plasma proteins ([7]; ref Umbricht et al. [2018]): 59%
- Stability in human serum (%) [8]: 98.4%
- Binding to mouse serum proteins [9]: 6%
